Experimental data: US4690935A, “Inhibition of tumor growth and metastasis with calcium channel blocker compounds” (Wayne State University, priority 1983, dated 1987)

System: Platelet
Test: Tumor cell (Lewis Lung Carcinoma, 3LL) induced platelet aggregation (TCIPA)
Format: cell-based, human
Settings: 3LL cells
Description: Blood (45 ml) was drawn from the […] vein of healthy, fasted, aspirin free (at least two weeks) human volunteers into a plastic syringe containing 5 ml of 4.8% dextrose with 50 U/ml heparin buffered by 25 mM HEPES, pH 7.5. An 18 gauge needle was used to prevent hemolysis. The heparinized blood was gently mixed by inverting the syringe five times and then the blood was transfused into two 40 ml plastic centrifuge tubes and centrifuged for 10 min at 163×g. The resulting platelet rich plasma (PRP; the supernatant fraction) was decanted using an adjustable SMI pipette set at 6 ml. Platelet poor plasma (PPP) was prepared by centrifugation of PRP for 10 min at 1086×g. Platelet poor plasma was used to standardize the platelet concentration in PRP to 3×10^8 /ml. Platelet concentrations were determined using a Coulter Model ZBI cell counter.
Platelet aggregation was measured photometrically using a Sienco Model DP-247E dual channel aggregometer and recorded on a Sienco Model B-5000 dual channel recorder. Aliquots of PRP (250 microliters at 3×10^8 platelets/ml) were transferred into aggregometry cuvettes and stirred at a constant speed of 800 RPM at 37° C. Platelet aggregation studies were designed and run as individually controlled samples. BAY e 9736 was dissolved in either PEG-400 or […] (DMSO).
BAY e 9736 in PEG-400 alone was aliquoted into the cuvettes prior to the addition of the PRP. Immediately after the addition of the PRP, the cuvettes were placed into the aggregometer. After two minutes (to allow for the stabilization of the platelet preparation and mixing of the BAY e 9736), ADP or tumor cells were added in 20 microliter aliquots to induce platelet aggregation.
The calcium channel blocker nifedipine was tested for its ability to inhibit tumor cell induced platelet aggregation (TCIPA). Nifedipine (20 mg) was dissolved in one milliliter of abolute ethanol:PEG-400 (1:1), and then diluted 1:10 with the same ethanol:PEG-400 mixture. […]

## COC(=O)C1=C(C)NC(C)=C(C(=O)OC)C1c1ccccc1[N+](=O)[O-] [nifedipine]
  effect on tumor cell induced platelet aggregation (in words): can inhibit TCIPA in a dose dependent fashion
Homo sapiens, 0.015 mg/ml, read-out: INHIBITION OF CONTROL TCIPA
  inhibition at 15 µg/mL: 22%
Homo sapiens, 0.15 mg/ml, read-out: INHIBITION OF CONTROL TCIPA
  inhibition at 150 µg/mL: 42%
